From US20220169603A1, “NOVEL SALTS, CRYSTALLINE FORMS AND PREMIX OF HYPOLIPIDEMIC AGENT” (Cadila Healthcare Ltd., priority 2019, published 2022)

Experiments:
[1] = tested on: serum triglyceride levels; experiment: Comparative efficacy study (triglyceride lowering effects) in Swiss albino mice; format: in vivo; details: for % Change Day 6 vs Day 0 (serum triglycerides) / % Change Vs control (serum triglycerides) / Serum triglycerides Day 6: 1 mg/kg free acid equivalent, oral, once daily for six days; for % Change Vs control (serum triglycerides): vs vehicle control; for reduction in serum triglyceride levels as compared to vehicle control group: p.o., six days; for Serum triglycerides Day 0: Day 0, before treatment, male Swiss albino mice, 6 per group; for Serum triglycerides Day 6: Day 6, one hr after dose
Experimental: The in-vivo efficacy of test compound was evaluated in Swiss albino mice. Anti-dyslipidemic drugs have been reported to lower circulating levels of triglyceride in Swiss albino mice through their effect on genes involved in the peroxisomal fatty acid beta oxidation via PPAR alpha agonism. Therefore, this species is preferred for evaluation of their efficacy in lowering circulating triglyceride (TG) levels.
In this experiment, ten to eleven week old male Swiss albino mice were issued and kept for acclimatization. Near the end of the acclimatization period, animals judged to be suitable for testing were bled under light anesthesia and serum samples were analyzed for serum triglyceride levels.
Test compounds were formulated at specified doses in vehicle (MiliQ Water). The animals were dosed orally, once daily in the morning during six days, starting from next day of grouping with vehicle or test compound. The animals were weighed prior to dosing, and based on these weights; the volume of administration was calculated. The volume of formulation administered to each mouse was 10 ml/kg body weight.
On day 6, one-hr after the dose administration, blood (0.25 ml) was collected from retro-orbital sinus of the anaesthetized animals. Serum was separated by centrifugation. Serum was analyzed for triglyceride levels. Analysis for serum triglyceride levels was performed using Spectrophotometer and commercially available kit. Calculations for determination of % change and % reduction in serum TG levels (Table 3) were performed using MS Excels sheet.

[2] = Stability of selected compounds measured by HPLC purity over 6 months; format: physicochemical
Experimental: • Column: YMC-pack ODS-AM (type L1) or equivalent; 250×4.6 mm, 5 μm • Wave length: 294 nm • Column temp.: 30° C. • Mobile phase: [Ammonium acetate buffer: Acetonitrile]/[55:45] • Flow rate: 1 ml/min • Injection vol.: 5 μl • Retention time: About 10 mints. • Run time: 60 mints.

[3] = Stability study of Saroglitazar free acid (purity and % of impurity on storage); format: physicochemical
Text: Further the Saroglitazar free acid as disclosed in WO03009841 was always obtained in liquid form.

Compound | % Change Day 6 vs Day 0 (serum triglycerides) [1] [%] | % Change Vs control (serum triglycerides) [1] [%] | reduction in serum triglyceride levels as compared to vehicle control group ([1]; 1 mg/kg) | Serum triglycerides Day 0 [1] [mg/dL] | Serum triglycerides Day 6 [1] [mg/dL] | HPLC (% purity) At 0 month [2] [%] | HPLC (% purity) After 6 months [2] [%] | Serum triglycerides Day 6 ([1]; 1 mg/kg) [mg/dL] | further results
CCO[C@@H](Cc1ccc(OCCn2c(C)ccc2-c2ccc(SC)cc2)cc1)C(=O)[O-].[Na+] [Example 6, (S)-2-ethoxy-3-(4-(2-(2-methyl-5-(4-(methylthio)phenyl)-1H-pyrrol-1-yl)ethoxy)phenyl)propanoic Acid Sodium Salt] | −34.4 ± 10.5 | −62.7 ± 6.0 | 62.7% | 59.6 ± 5.4 | 39.0 ± 7.5 |  |  |  | 
CCO[C@@H](Cc1ccc(OCCn2c(C)ccc2-c2ccc(SC)cc2)cc1)C(=O)[O-].[Li+] [Example 12, (S)-2-ethoxy-3-(4-(2-(2-methyl-5-(4-(methylthio)phenyl)-1H-pyrrol-1-yl)ethoxy)phenyl)propanoic Acid Lithium Salt] |  |  |  |  |  | 96.82 | 95.50 |  | 
CCO[C@@H](Cc1ccc(OCCn2c(C)ccc2-c2ccc(SC)cc2)cc1)C(=O)O [Saroglitazar, (S) 2-Ethoxy-3-(4-{2-[2-methyl-5-(4-methylthiophenyl)-pyrrol-1-yl]-ethoxy}-phenyl)-propionic acid] | 8.7 ± 9.0 | −38.2 ± 5.1 | 38.2% | 61.8 ± 7.4 | 65.9 ± 7.7 |  |  |  | % of impurity (RT-~22.0 min) AFTER 6 DAYS ([3]; at 0-5° C.): (0.598%); PURITY AFTER 6 DAYS ([3]; at 0-5° C.): 98.44%; % of impurity (RT-~22.0 min) AFTER 17 DAYS ([3]; at 0-5° C.): (0.631%); PURITY AFTER 17 DAYS ([3]; at 0-5° C.): 98.39%; % of impurity (RT-~22.0 min), initial ([3]; at 0-5° C.): (0.573%); INITIAL PURITY ([3]; at 0-5° C.): 98.11%; % of impurity (RT-~22.0 min) AFTER 6 DAYS ([3]; at 25~30° C.): (0.770%); PURITY AFTER 6 DAYS ([3]; at 25~30° C.): 98.12%; % of impurity (RT-~22.0 min) AFTER 17 DAYS ([3]; at 25~30° C.): (0.850%); PURITY AFTER 17 DAYS ([3]; at 25~30° C.): 97.87%; % of impurity (RT-~22.0 min), initial ([3]; at 25~30° C.): (0.573%); INITIAL PURITY ([3]; at 25~30° C.): 98.11%; stability (in words) ([3]; room temperature conditions): less stable
(S)-2-ethoxy-3-(4-(2- (2-methyl-5-(4-(methylthio)phenyl)-1H-pyrrol-1-yl)ethoxy)phenyl)propanoic Acid Magnesium Salt [Example 31] |  |  |  |  |  | 96.95 | 95.55 |  | 
(S)-2-ethoxy-3-(4-(2-(2-methyl-5-(4-(methylthio)phenyl)-1H-pyrrol-1-yl)ethoxy)phenyl)propanoic Acid Aluminum Salt [Example 14] | −35.1 ± 10.9 | −63.1 ± 6.2 | 63,1% | 61.9 ± 7.4 | 37.4 ± 3.4 | 96.79 | 94.94 |  | 
(S)-2-ethoxy-3-(4-(2-(2-methyl-5-(4-(methylthio)phenyl)-1H-pyrrol-1-yl)ethoxy)phenyl)propanoic Acid Magnesium Salt [Example 28] | −47.7 ± 10.2 | −70.2 ± 5.8 |  | 64.3 ± 8.6 |  | 93.08 | 90.72 | 30.0 ± 3.8 | 
(S)-2-ethoxy-3-(4-(2-(2-methyl-5-(4-(methylthio)phenyl)-1H-pyrrol-1-yl)ethoxy)phenyl)propanoic Acid Magnesium Salt [Example 29] | −35.5 ± 7.5 | −63.3 ± 4.3 |  | 59.4 ± 5.0 |  | 97.68 | 94.63 | 37.0 ± 3.5 | 
(S)-2-ethoxy-3-(4-(2-(2-methyl-5-(4-(methylthio)phenyl)-1H-pyrrol-1-yl)ethoxy)phenyl)propanoic Acid Magnesium Salt [Example 32] | −44.5 ± 10.4 | −68.4 ± 5.9 |  | 61.9 ± 7.7 |  | 97.10 | 95.78 | 32.6 ± 4.9 | 
(S)-2-ethoxy-3-(4-(2-(2methyl-5-(4-(methylthio)phenyl)-1H-pyrrol-1-yl)ethoxy)phenyl)propanoic Acid Calcium Salt [Example 16] | −33.9 ± 14.3 | −62.4 ± 8.1 | 62.4% | 61.3 ± 6.4 | 38.2 ± 5.6 | 96.83 | 96.76 |  | 
